Patent US11267802B2 (BEBETTER MED INC., priority 2015, dated 2022)

What was measured:
[1] = system: H1975; assay: Inhibition assay on tumor cell proliferation (CellTiter-Glo), H1975; assay type: cell-based, Human; details: Homo sapiens, NCI-H1975; H1975 (L858R and T790M EGFR double mutation), 72 hours, 10% bovine serum
[2] = system: HCC827; assay: Inhibition assay on tumor cell proliferation (CellTiter-Glo), HCC827; assay type: cell-based; details: Homo sapiens; HCC827 (ex19del), 72 hours, 10% bovine serum
Procedure: By using a CellTiter-Glo luminescence cell viability test kit (Promega, # G7572), the content of adenosine triphosphate (ATP) was determined to assess the cell viability.
Human colon cancer cell line LOVO and human non-small-cell lung cancer H358 express wild-type EGFR. Human non-small-cell lung cancer cell line HCC827 carries deletion mutation in exon 19 (ex19del). Those cell lines are purchased from Shanghai Fudan IBS Cell Resource Center and American Tissue Culture Collection (ATCC).
The assay procedure is as follows. The cells in a cell culture plate were digested with a pancreatic enzyme, re-suspended in a DPBS culture medium, and had the cell density counted by Scepter automated cytometer (Millipore # PHCC00000). The cells were diluted to a solution of 44,000 cells per ml. The cell solution with adjusted density was added to the cell assay plate at 90 microliters per well. The plate was placed in an incubator with 5% CO2 at 37° C. for 24 hours of incubation, and then added with different concentrations of subject compounds. The cells were incubated for 72 hours with the compounds in presence of 10% bovine serum. The content of ATP was determined by a CellTiter-Glo® Luminescent Cell Viability Assay kit (see the manufacturer's instruction for details) to evaluate cell-growth inhibition.
Briefly, 30 μl of CellTiter-Glo® reagent was added to each well, and then shaken for 10 minutes to induce cell lysis. The fluorescent signal was detected and recorded by Fluoroskan Ascent FL (Thermo). The max signal value was obtained from the cells treated by dimethyl sulfoxide for 72 hours. The min signal value was obtained from the medium alone (the number of the cells was 0). Inhibitory rate %=(max signal value−compound signal value)/(max signal value−min signal value)×100. The data was processed by GraphPad Prism V5.0 software (GraphPad Software, San Diego, Calif.). Sigmoidal dose-response curve fitting was performed to calculate the IC50 value.

[3] = system: LOVO; assay: Inhibition assay on tumor cell proliferation (CellTiter-Glo), LOVO; assay type: cell-based, Human; details: Homo sapiens; LOVO (wild-type EGFR), 72 hours, 10% bovine serum
How it was run: (§1)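 Viability from ATP content by CellTiter-Glo luminescence; inhibition normalised to DMSO (max) and medium-only (min) wells, IC50 by sigmoidal dose-response fitting. LOVO and H358 carry wild-type EGFR; HCC827 has exon 19 deletion.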

[4] = system: H358; assay: Inhibition assay on tumor cell proliferation (CellTiter-Glo), H358; assay type: cell-based, Human; details: Homo sapiens, NCI-H358; H358 (wild-type EGFR), 72 hours, 10% bovine serum
How it was run: as §1

[5] = system: H1975 xenograft tumor; assay: Potency assay of tumor model, dose-effect relationship, 22 consecutive days; assay type: in vivo, Balb/C nude mice; details: 25 mg/kg, po, qd, 22 consecutive days
Procedure: Balb/C nude mice were purchased from Beijing Vital River Laboratory Animal Technology Co., Ltd., and housed in SPF animal room. The human non-small-cell lung cancer cell line H1975 in a culture dish was collected by trypsin-EDTA (0.25% trypsin, 1 mM EDTA), and then washed with a serum-free PBS solution. Lastly, the cells were implanted after diluted in a serum-free medium. Only the single cell suspension with a survival rate over 90% (Trypan blue rejection) can be used for injection. 5 million cells suspended in a 0.1 ml serum-free culture were injected into the front right flanking subcutaneous region of each mouse by using a 1 ml syringe and a 25G syringe needle, and the blood vessel was carefully avoided. The tumor size was measured in about one week after implantation. A caliper rule was used to measure the tumor size. The tumor volume was calculated by the following formula: tumor volume=(length×width^2)/2.
Further assay was performed to assess the dose-effect relationship of the inhibition of H1975 transplantation tumor growth by the compounds 51 and 91. […] These compounds were dissolved in 30% sulfobutylated beta-cyclodextrin (SBE-β-CD) and 1N HCl (pH 3-4), respectively. […]

C=CC(=O)Nc1cc(Nc2nccc(-c3cn(C)c4ccccc34)n2)c(OC)cc1N(C)CCN(C)C [AZD9291, Osimertinib, reference compound]
IC50 [1]: < 0.01 µM
IC50 [2]: < 0.01 µM
IC50 [3]: > 1 µM
IC50 [4]: 0.1 to 1 µM
Tumor inhibition T/C value (%) [5]: −100%
Weight change (%) [5]: −7.2%
